Experimental data as given in patent publication US20230277546A1, “AGENT FOR SUPPRESSING POST-SURGICAL CANCER RECURRENCE AND/OR METASTASIS” (ONO PHARMACEUTICAL CO., LTD., priority 2017, published 2023).
Where a name gives a salt, the structure may show the parent alone.

Legend:
[1] = system: non-small cell lung cancer; experiment: Multicenter, unblinded, randomized, controlled investigator-initiated clinical trial: perioperative landiolol hydrochloride to suppress postsurgical recurrence; assay type: in vivo, human; conditions: 2.5 μg/kg/min at the beginning, adjusted 0.5 to 5 μg/kg/min; continuous iv from immediately before anesthetic induction for 72 hours
Protocol: Patients with non-small cell lung cancer who will undergo surgery for complete resection of the cancer are involved in the study. For evaluating effectiveness and safety of landiolol hydrochloride in the patients, a multicenter, unblinded, randomized, controlled, investigator-initiated clinical trial is carried out as described below. The control group includes the patients who undergo the surgery but are not treated with landiolol hydrochloride.
Primary endpoints: recurrence-free survival (RFS) over first two postoperative years and overall survival (OS)
Secondary endpoints: <Effectiveness> For example, whether the patients are subjected to treatment of recurrence or not, and if subjected, the period until the treatment; the time until OS or the treatment of recurrence, <Safety> adverse events, incidence of postoperative complication, blood pressure, 12-lead electrocardiogram, and general laboratory test
Dosage: 2.5 μg/kg/min at the beginning and adjusted in the range of 0.5 to 5 μg/kg/min
Administration period: continuous intravenous administration is started immediately before the anesthetic induction and kept for 72 hours

[2] = system: malignant lung tumor; experiment: Analysis of effects of landiolol hydrochloride in patients who underwent lung resection surgery (recurrence-free and overall survival, Kaplan-Meier); assay type: in vivo, human
Protocol: Ethics committee approval was obtained before the study was started. Among the patients who underwent lung lobectomy, the outcomes were compared between those who were treated with landiolol hydrochloride and those who were not treated with it.
For each patient the following information was drawn from the medical chart from May 2012 to Mar. 31, 2017 and recorded in clinical report form (CRF). • Background of the patient (date of birth, sex, stage of lung cancer, weight, height, and performance status) • Date of the lung cancer surgery • Whether landiolol hydrochloride was administered or not, and if administered, the dose thereof • Date on which recurrence was diagnosed (date of diagnostic imaging or date on which recurrence was clinically diagnosed) • Date on which recurrence-free survival was last confirmed • Date of death • Date on which survival was last confirmed • Whether adjuvant chemotherapy was applied or not
The 2-year recurrence-free survival rate was compared between the patients who had been treated with landiolol hydrochloride and the patients who had not been treated with it to evaluate the effect of landiolol hydrochloride.
Kaplan-Meier method as described below was employed to calculate the 2-year recurrence-free survival rate.
The recurrence was defined as follows; • The recurrence included both of recurrence diagnosed on the basis of diagnostic imaging and clinical recurrence diagnosed on the basis of aggravation of a symptom instead of the diagnostic imaging. The date of recurrence was the date of the diagnostic imaging or the date on which the clinical recurrence was diagnosed. Even if an increased tumor marker was detected previously, the fact alone was not regarded as indicating recurrence and the date of recurrence was the date of the diagnostic imaging or the date on which the clinical recurrence was diagnosed. When no recurrence was diagnosed during the observation period, the patients were censored on the day of final confirmation of recurrence-free survival. • When recurrence was diagnosed by the diagnostic imaging, the event was regarded as having occurred on the date of the diagnostic imaging that gave the definitive diagnosis, not the date of the diagnostic imaging that raised the suspicion of recurrence. When recurrence was clinically diagnosed, the event was regarded as having occurred on the date of the diagnosis. • Definitive diagnosis of recurrence may be based on biopsy analysis. When recurrence was successfully diagnosed by the clinical diagnosis before the biopsy analysis, the event was regarded as having occurred on the date of the clinical diagnosis. When recurrence was not successfully diagnosed by the clinical diagnosis alone, but finally diagnosed by the biopsy analysis, the event was regarded as having occurred on the date of the biopsy analysis. • Occurrence of any one of secondary cancer, metachronous double cancers, and metachronous multiple cancers was not regarded as the event or the censor. Unless another event was observed, the patient was regarded as being recurrence-free. […]
The recurrence-free survival and the overall survival were calculated according to the following equations; • The recurrence-free survival (days)=“date of diagnosis of recurrence or date of death for any cause, whichever came earlier”−“date of surgery”+1 • The overall survival (days)=“date of death for any cause”−“date of surgery”+1 […]

[3] = vs control group without administration, after lung cancer surgery

## CC1(C)OC[C@@H](COC(=O)CCc2ccc(OC[C@@H](O)CNCCNC(=O)N3CCOCC3)cc2)O1 [landiolol hydrochloride, Landiolol hydrochloride]
[1]
  effect to suppress recurrence and/or metastasis of the cancer: confirms the effect
[2]; censored patients, first two postoperative years, test group N = 28
  Censor, (%): (89.3) %
[2]; patients after lung resection surgery, intravenous continuous 2.5 μg/kg/min from induction to completion of anesthesia, N = 28, Kaplan-Meier
  2-year Recurrence-free survival rate [95% CI]: 89.3%
[2]; recurrence or death events within first two postoperative years, test group N = 28, 2.5 μg/kg/min iv continuous during anesthesia
  Event, (%): (10.7) %
[2]; [3]
  overall survival (Kaplan-Meier curve, FIG. 2): tendency that the administration of landiolol hydrochloride prolongs
  recurrence-free survival (Kaplan-Meier curve, FIG. 1): tendency that the administration of landiolol hydrochloride prolongs
